Assay results taken from patent publication US20140314819A1, “COMPOSITIONS AND METHODS FOR TREATING DENTAL CONDITIONS” (HILL'S PET NUTRITION, INC., priority 2011, published 2014).

Assays:
[1] = test system: oral substrate accumulation (dental plaque, calculus, and tooth stain); assay: Twelve month feeding study in cats: oral substrate accumulation by Logan-Boyce quantification; type: in vivo, domestic cats; conditions: composition comprising 1.2% lactic acid fed to cats for six months
Source text: This study was designed to assess the effect of lactic acid on oral substrate accumulation (dental plaque, calculus, and tooth stain) in cats. Initially, all cats received a professional dental prophylaxis at this baseline using standard, well-established procedures. Six and twelve months later, dental substrate accumulation (dental plaque, calculus, and tooth stain) was quantified using the Logan-Boyce quantification method (See Logan E I, Boyce. Oral health assessment in dogs: parameters and methods. J. Vet Dent; 11(2):58-63.) Plaque is measured by applying a disclosing solution (2% aqueous eosin) to the animal's teeth. The teeth to be scored are divided into gingival and occlusal halves, and each half is assigned a separate numerical score for plaque coverage (percentage of the tooth area stained) and thickness (intensity of staining) The score for each tooth half is calculated by multiplying the coverage and thickness scores. The gingival and occlusal scores are then added together for a tooth score. The sum of the teeth scores is identified as the total tooth score, and the whole mouth mean score is calculated by averaging the total teeth scores for each animal. The plaque scoring method gives a number of 0-4 by the percentage of plaque coverage with 0=no plaque detected, 1=1-24% coverage, 2=25-49% coverage, 3=50-74% coverage and 4=75-100% coverage. […]

[2] = test system: oral substrate accumulation (dental plaque, calculus, and tooth stain); assay: 28 day feeding study in dogs: oral substrate accumulation by Logan-Boyce quantification; type: in vivo, beagle dogs; conditions: dog food comprising 1.5% lactic acid fed to dogs for one month
Protocol: Plaque is measured by applying a disclosing solution (2% aqueous eosin) to the animal's teeth. The teeth to be scored are divided into gingival and occlusal halves, and each half is assigned a separate numerical score for plaque coverage (percentage of the tooth area stained) and thickness (intensity of staining) The score for each tooth half is calculated by multiplying the coverage and thickness scores. The gingival and occlusal scores are then added together for a tooth score. The sum of the teeth scores is identified as the total tooth score, and the whole mouth mean score is calculated by averaging the total teeth scores for each animal. The plaque scoring method gives a number of 0-4 by the percentage of plaque coverage with 0=no plaque detected, 1=1-24% coverage, 2=25-49% coverage, 3=50-74% coverage and 4=75-100% coverage. […] The whole mouth score is calculated by adding the teeth scores and dividing by the number of teeth scored. Calculus is measured by air-drying the teeth to be scored, dividing those teeth vertically into mesial, buccal, and distal thirds, and assigning each third a numerical score based on the percentage of calculus coverage with 0=no calculus detected, 1=1-24% coverage, 2=25-49% coverage, 3=50-74% coverage, and 4=75-100% coverage. […] The whole mouth score is calculated by adding the teeth scores and dividing by the number of teeth scored. […]

CC(O)C(=O)O (centres unmarked) [lactic acid]
Effect on formation of dental plaque, calculus and stain (in words) [1]: inhibits formation of dental plaque, calculus and stain | Effect on tooth calculus and stain (in words) [2]: inhibits tooth calculus and stain
